# Assay results: ChEMBL document CHEMBL2439949, “Synthesis and structure-activity relationships of phenyl-substituted coumarins with anti-tubercular activity that target FadD32” (Bioorg Med Chem Lett, 2013)
# Active and inactive are the calls of the source. The calls are words filed in the database; no cut-off is given here.
# What was measured:
# [1] = tested on: Mycobacterium tuberculosis; assay: Antimycobacterial activity against Mycobacterium tuberculosis H37Rv at 64 uM after 7 days; assay type: functional, organism-based
# [2] = tested on: Mycobacterium tuberculosis; assay: Antimycobacterial activity against Mycobacterium tuberculosis H37Rv after 7 days; assay type: functional; conditions: 168 h
# [3] = Metabolic stability of the compound in human plasma assessed as compound remaining at 1 uM after 5 hrs; assay type: ADME, cell-free; conditions: read-out: Stability
# [4] = Solubility in water; assay type: physicochemical
# [5] = Plasma protein binding in human at 1 uM after 5 hrs; assay type: ADME, cell-free; conditions: read-out: PPB (converted)
# HepG2 = assay: Cytotoxicity against human HepG2 cells at 125 uM after 48 hrs; assay type: cell-based; conditions: hepg2, 48 h
# [6] = tested on: Mycobacterium tuberculosis; assay: Antimycobacterial activity against Mycobacterium tuberculosis H37Rv at 250 uM after 7 days; assay type: functional
# [7] = tested on: Mycobacterium tuberculosis; assay: Antimycobacterial activity against Mycobacterium tuberculosis H37Rv at 62 uM after 7 days; assay type: functional, organism-based
# [8] = Cytotoxicity against human HepG2 cells after 48 hrs; assay type: cell-based; conditions: read-out: LD50
# [9] = Oral bioavailability in Balb/c mouse at 10 mg/kg; assay type: ADME, organism-based; conditions: in vivo
# [10] = MRTlast in Balb/c mouse at 10 mg/kg, po; assay type: ADME, organism-based; set-up: dose 10 mg/kg, route oral; conditions: in vivo
# Mus musculus [11] = assay: Volume of distribution in Balb/c mouse at 10 mg/kg, po; assay type: ADME, organism-based; set-up: dose 10 mg/kg, route oral; conditions: in vivo
# [12] = Clearance in Balb/c mouse at 10 mg/kg, po; assay type: ADME, organism-based; set-up: dose 10 mg/kg, route oral; conditions: in vivo
# [13] = AUC (0 to infinity) in Balb/c mouse at 10 mg/kg, po; assay type: ADME, organism-based; set-up: time infinity, dose 10 mg/kg, route oral; conditions: plasma
# [14] = AUClast in Balb/c mouse at 10 mg/kg, po; assay type: ADME, organism-based; set-up: time 0 - last, dose 10 mg/kg, route oral; conditions: plasma
# Mus musculus [15] = assay: Initial plasma concentration in Balb/c mouse at 10 mg/kg, po; assay type: ADME, organism-based; set-up: dose 10 mg/kg, route oral; conditions: in vivo
# [16] = Tmax in Balb/c mouse at 10 mg/kg, po; assay type: ADME, organism-based; set-up: dose 10 mg/kg, route oral; conditions: in vivo
# [17] = MRTlast in Balb/c mouse at 1 mg/kg, iv; assay type: ADME, organism-based; set-up: dose 1 mg/kg, route intravenous; conditions: in vivo
# [18] = Half life in Balb/c mouse at 10 mg/kg, po; assay type: ADME, organism-based; set-up: dose 10 mg/kg, route oral; conditions: in vivo
# [19] = Volume of distribution in Balb/c mouse at 1 mg/kg, iv; assay type: ADME, organism-based; set-up: dose 1 mg/kg, route intravenous; conditions: in vivo
# [20] = Clearance in Balb/c mouse at 1 mg/kg, iv; assay type: ADME, organism-based; set-up: dose 1 mg/kg, route intravenous; conditions: in vivo
# [21] = AUClast in Balb/c mouse at 1 mg/kg, iv; assay type: ADME, organism-based; set-up: time 0 - last, dose 1 mg/kg, route intravenous; conditions: plasma
# [22] = AUC (0 to infinity) in Balb/c mouse at 1 mg/kg, iv; assay type: ADME, organism-based; set-up: time infinity, dose 1 mg/kg, route intravenous; conditions: plasma
# [23] = Tmax in Balb/c mouse at 1 mg/kg, iv; assay type: ADME, organism-based; set-up: dose 1 mg/kg, route intravenous; conditions: in vivo
# [24] = Initial plasma concentration in Balb/c mouse at 1 mg/kg, iv; assay type: ADME, organism-based; set-up: dose 1 mg/kg, route intravenous
# [25] = Half life in Balb/c mouse at 1 mg/kg, iv; assay type: ADME, organism-based; set-up: dose 1 mg/kg, route intravenous; conditions: in vivo
# [26] = Permeability of the compound from basolateral to apical side of human Caco2 cells at 10 uM; assay type: ADME, cell-based; conditions: Caco-2, read-out: permeability
# [27] = Permeability of the compound from apical to basolateral side of human Caco2 cells at 10 uM; assay type: ADME, cell-based; conditions: Caco-2, read-out: permeability
# [28] = Metabolic stability of the compound in Balb/c mouse plasma assessed as compound remaining at 1 uM after 8 hrs; assay type: ADME, cell-free; conditions: read-out: Stability
# [29] = Intrinsic clearance in Balb/c mouse liver microsomes at 100 uM; assay type: ADME, Microsome; conditions: read-out: CLH
# [30] = Half life in Balb/c mouse liver microsomes at 100 uM; assay type: ADME, Microsome
compound,measurement,setting,value
COc1ccccc1-c1c(C)cc2oc(=O)cc(-c3ccccc3)c2c1C,Activity,[1],inactive
Cc1cc2oc(=O)cc(-c3ccccc3)c2c(C)c1-c1ccc(F)cc1,IC90,[2],26 µM
Cc1cc2oc(=O)cc(-c3ccccc3)c2c(C)c1-c1ccc(C(F)(F)F)cc1,IC90,[2],29 µM
CC(=O)c1ccc(-c2c(C)cc3oc(=O)cc(-c4ccccc4)c3c2C)cc1,IC90,[2],220 µM
Cc1cc2oc(=O)cc(-c3ccccc3)c2c(C)c1-c1ccc(CN2CCOCC2)cc1,"remaining at 5 h, 1 µM",[3],84.4%
same,solubility,[4],36.1 µM
same,"fraction unbound at 5 h, 1 µM",[5],0.014
same,Activity,HepG2,Non-toxic
same,IC90,[2],0.5 µM
O=c1cc(-c2ccccc2)c2cc(-c3ccc(CO)cc3)ccc2o1,IC90,[2],115 µM
Cc1cc2oc(=O)cc(-c3ccccc3)c2c(C)c1Br,Activity,[1],inactive
Cc1ccc(-c2c(C)cc3oc(=O)cc(-c4ccccc4)c3c2C)cc1,IC90,[2],36 µM
Cc1cc2oc(=O)cc(-c3ccc(N)cc3)c2c(C)c1-c1ccc(CN2CCOCC2)cc1,IC90,[2],14 µM
Cc1ccc(-c2ccc3oc(=O)cc(-c4ccccc4)c3c2)cc1,inhibition at 250 µM,[6]; 168 h,24%
Cc1cc2oc(=O)cc(-c3ccccc3)c2c(C)c1-c1ccc(C)c2ccccc12,Activity,[1],inactive
Cc1cc2oc(=O)cc(-c3cccc(N)c3)c2c(C)c1-c1ccc(CN2CCOCC2)cc1,"remaining at 5 h, 1 µM",[3],88%
same,solubility,[4],89.3 µM
same,"fraction unbound at 5 h, 1 µM",[5],0.013
same,IC90,[2],0.4 µM
Cc1cc2oc(=O)cc(-c3ccccc3)c2c(C)c1-c1ccc(CO)cc1,"remaining at 5 h, 1 µM",[3],80.3%
same,solubility,[4],0.2 µM
same,"fraction unbound at 5 h, 1 µM",[5],0.006
same,Activity,HepG2,Non-toxic
same,IC90,[2],7 µM
Cc1cc2oc(=O)cc(-c3ccccc3)c2c(C)c1-c1cccc(Cl)c1,IC90,[2],260 µM
CCOC(=O)Nc1cccc(-c2cc(=O)oc3cc(C)c(-c4ccc(CN5CCOCC5)cc4)c(C)c23)c1,IC90,[2],39 µM
COc1cccc(-c2c(C)cc3oc(=O)cc(-c4ccccc4)c3c2C)c1,IC90,[2],31 µM
Cc1cc(CO)ccc1-c1c(C)cc2oc(=O)cc(-c3ccccc3)c2c1C,Activity,HepG2,Non-toxic
same,IC90,[2],22 µM
COC(=O)c1cccc(-c2cc(=O)oc3cc(C)c(-c4ccc(CN5CCOCC5)cc4)c(C)c23)c1,IC90,[2],59 µM
Cc1cc2oc(=O)cc(-c3ccccc3)c2c(C)c1-c1ccc(CN2CCCCC2)cc1,Activity,HepG2,Non-toxic
same,IC90,[2],19 µM
CCCCCCNCc1ccc(-c2c(C)cc3oc(=O)cc(-c4ccccc4)c3c2C)cc1,IC90,[2],4 µM
COc1ccc(C2=CC(=O)Cc3cc(C)c(-c4ccc(CN5CCOCC5)cc4)c(C)c32)cc1,Activity,[7],inactive
CC(=O)Nc1cccc(-c2cc(=O)oc3cc(C)c(-c4ccc(CN5CCOCC5)cc4)c(C)c23)c1,Activity,HepG2,Non-toxic
same,IC90,[2],12 µM
Cc1ccc(/C=C/c2c(C)cc3oc(=O)cc(-c4ccccc4)c3c2C)cc1,IC90,[2],61 µM
Cc1cc2oc(=O)cc(-c3cccc([N+](=O)[O-])c3)c2c(C)c1-c1ccc(CN2CCOCC2)cc1,Activity,HepG2,Non-toxic
same,IC90,[2],6 µM
Cc1cc2oc(=O)cc(-c3ccccc3)c2c(C)c1-c1ccc(CNC2CCCCC2)cc1,Activity,HepG2,Non-toxic
same,CC50 at 48 h,[8],32 µM
same,IC90,[2],5 µM
Cc1cc(C)c2c(-c3ccccc3)cc(=O)oc2c1,IC90,[2],1100 µM
Cc1cc2oc(=O)cc(-c3ccccc3)c2c(C)c1-c1ccccc1Cl,Activity,HepG2,Non-toxic
same,IC90,[2],22 µM
Cc1cc2oc(=O)cc(-c3ccccc3)c2cc1-c1ccc(CO)cc1,IC90,[2],68 µM
Cc1cc2oc(=O)cc(-c3cccc(NS(C)(=O)=O)c3)c2c(C)c1-c1ccc(CN2CCOCC2)cc1,IC90,[2],59 µM
Cc1cc2oc(=O)cc(-c3ccccc3)c2c(C)c1-c1ccc(C#N)cc1,IC90,[2],295 µM
Cc1cc2oc(=O)cc(-c3ccccc3)c2c(C)c1-c1ccc(Cl)cc1,IC90,[2],54 µM
Cc1ccc(-c2c(C)cc3oc(=O)cc(C)c3c2C)cc1,inhibition,[6],inactive
Cc1c(-c2ccc(CO)cc2)ccc2oc(=O)cc(-c3ccccc3)c12,IC90,[2],70 µM
Cc1cc2oc(=O)cc(-c3ccccc3)c2c(C)c1-c1ccc(CN2CCN(C)CC2)cc1,Activity,HepG2,Non-toxic
same,IC90,[2],5.89 µM
Cc1cc2oc(=O)cc(-c3ccccc3)c2c(C)c1-c1cccnc1,IC90,[2],69 µM
C=Cc1ccc(-c2c(C)cc3oc(=O)cc(-c4ccccc4)c3c2C)cc1,IC90,[2],184 µM
Cc1cc(-c2c(C)cc3oc(=O)cc(-c4ccccc4)c3c2C)ccn1,IC90,[2],36 µM
Cc1cc2oc(=O)cc(-c3cccc(N)c3)c2c(C)c1-c1ccc(CN2CCOCC2)cc1.Cl.Cl,bioavailability,[9],62%
same,MRT last,[10],4.31 h
same,Vd,Mus musculus [11],12.25 L/kg
same,CL/F,[12],52.3 mL/min/kg
same,AUC(0-inf),[13],3190 ng·h/mL
same,AUC(0-t),[14],3180 ng·h/mL
same,C0,Mus musculus [15],642.06 ng/mL
same,Tmax,[16],2 h
same,MRT last,[17],1.36 h
same,half-life,[18],2.71 h
same,Vd,[19],3.91 L/kg
same,clearance,[20],31.1 mL/min/kg
same,AUC(0-t),[21],513 ng·h/mL
same,AUC(0-inf),[22],536 ng·h/mL
same,Tmax,[23],4.98 min
same,C0,[24],851 ng/mL
same,half-life,[25],1.45 h
same,Papp B→A at 10 µM,[26],76.9 ×10⁻⁶ cm/s
same,Papp A→B at 10 µM,[27],34.5 ×10⁻⁶ cm/s
same,"remaining at 8 h, 1 µM",[28],112%
same,CLint scaled at 100 µM,[29],80.3 mL/min/kg
same,half-life at 100 µM,[30],8.63 h
Cc1cc2oc(=O)cc(-c3ccccc3)c2c(C)c1-c1ccncc1,"remaining at 5 h, 1 µM",[3],83.5%
same,solubility,[4],3.2 µM
same,"fraction unbound at 5 h, 1 µM",[5],0.012
same,Activity,HepG2,Non-toxic
same,IC90,[2],2 µM
Cc1cc(-c2ccc3oc(=O)cc(-c4ccccc4)c3c2)c(C)cc1CO,IC90,[2],170 µM
Cc1cc2oc(=O)cc(-c3cccnc3)c2c(C)c1-c1ccc(CN2CCOCC2)cc1,Activity,HepG2,Non-toxic
same,IC90,[2],1 µM
Cc1cc2oc(=O)cc(-c3ccccc3)c2c(C)c1-c1cccc(C(F)(F)F)c1,Activity,[1],inactive
CNC(=O)c1ccc(-c2c(C)cc3oc(=O)cc(-c4ccccc4)c3c2C)cc1,Activity,HepG2,Non-toxic
same,IC90,[2],7 µM
Cc1cc2oc(=O)cc(-c3ccccc3)c2c(C)c1-c1cccc(F)c1,IC90,[2],21 µM
Cc1cc2oc(=O)cc(-c3ccccc3)c2c(C)c1-c1cncnc1,IC90,[2],8 µM
Cc1cc2oc(=O)cc(-c3ccccc3)c2c(C)c1-c1ccc(C(C)O)cc1 (stereo not drawn),Activity,HepG2,Non-toxic
same,IC90,[2],4 µM
